Results on 41 molecules are retold here after US8507472B2 (priority 2010, dated 2013).

Data set [1] relates to Leptosphaeria nodorum. As to the kind of experiment: Leptosphaeria nodorum test (wheat)/protective. The data set is classed as in vivo. The following applies: in vivo. The procedure:
(§1) Solvent: 49 parts by weight of N,N-dimethylformamide
(§2) Emulsifier: 1 part by weight of alkylaryl polyglycol ether
(§3) To produce a suitable preparation of active compounds, 1 part by weight of active compound is mixed with the stated amounts of solvent and emulsifier, and the concentrate is diluted with water to the desired concentration.
To test for protective activity, young wheat plants are sprayed with the active compound preparation at the stated application rate. 1 day after the treatment, the plants are inoculated with an aqueous spore suspension of Leptosphaeria nodorum and then remain at 100% rel. atmospheric humidity and 22° C. for 48 h. The plants are then placed in a greenhouse at 90% rel. atmospheric humidity and a temperature of 22° C.
(§4) Evaluation is carried out 7-9 days after the inoculation. 0% means an efficacy which corresponds to that of the control, whereas an efficacy of 100% means that no infection is observed.

The subject of data set [2] is Sphaerotheca fuliginea. As to the kind of experiment: Sphaerotheca test (cucumber)/protective. Type of data set: in vivo. The following applies: in vivo. The procedure:
as §1, §2, §3
To test for protective activity, young cucumber plants are sprayed with the active compound preparation at the stated application rate. 1 day after the treatment, the plants are inoculated with a spore suspension of Sphaerotheca fuliginea. The plants are then placed in a greenhouse at 70% rel. atmospheric humidity and a temperature of 23° C.
(§5) Evaluation is carried out 7 days after the inoculation. 0% means an efficacy which corresponds to that of the control, whereas an efficacy of 100% means that no infection is observed.

The test system of data set [3] is Alternaria solani. In words: Alternaria test (tomato)/protective. Type of data set: in vivo. Particulars: in vivo. As to the method:
as §1, §2
To produce a suitable preparation of active compound, 1 part by weight of active compound is mixed with the stated amounts of solvent and emulsifier, and the concentrate is diluted with water to the desired concentration.
To test for protective activity, young tomato plants are sprayed with the active compound preparation at the stated application rate. 1 day after the treatment, the plants are inoculated with a spore suspension of Alternaria solani and then remain at 100% rel. humidity and 22° C. for 24 h. The plants then remain at 96% rel. atmospheric humidity and a temperature of 20° C.
as §5

The test system of data set [4] is Pyrenophora teres. As to the kind of experiment: Pyrenophora teres test (barley)/protective. Particulars: in vivo. The data set is classed as in vivo. The procedure: as §1, §2, §3
To test for protective activity, young barley plants are sprayed with the active compound preparation at the stated application rate. 1 day after the treatment, the plants are inoculated with an aqueous spore suspension of Pyrenophora teres and then remain at 100% rel. atmospheric humidity and 22° C. for 48 h. The plants are then placed in a greenhouse at 80% rel. atmospheric humidity and a temperature of 20° C.
as §4

Data set [5] deals with Phytophthora infestans. Type of data set: in vivo. Particulars: in vivo.
The nature of data set [6]: log P determination by HPLC retention times (alkan-2-one calibration). The following applies: preparation examples in the text.

For the molecule `CC(C)CC(=O)Nc1cc(-c2c(-c3ccc(F)cc3)nn3c2CCOC3)ccn1` [Example 112], the efficacy in % in data set [1] worked out at 90%; in data set [2] it was 95%; in data set [3], 90%; in data set [4], 95%.
Consider `CCC(=O)Nc1cc(-c2c(-c3ccc(F)cc3)nn3c2CCOC3)ccn1` [Example 95], for which the efficacy in % in data set [1] amounted to 90%; in data set [2] it was 95%; in data set [3] it was 80%; in data set [4] it was 100%.
Consider `CC(=O)Nc1cc(-c2c(-c3ccc(F)cc3)nn3c2CCOC3)ccn1` [Example 106], for which the efficacy in % in data set [2] was 75%; in data set [3] it was 80%; in data set [4], 95%.
In data set [5], `Nc1cc(-c2c(-c3ccc(F)cc3)nn3c2CCC3)ccn1` [Example 69] gave an efficacy in % of 70%.
With `CC(=O)Nc1cc(-c2c(-c3ccc(F)cc3)nn3c2CCCCC3)ccn1` [Example 99], the efficacy in % was found to be 95% in data set [1], 98% in data set [2], 80% in data set [3] and 95% in data set [4].
As to `COCC(=O)Nc1cc(-c2c(-c3ccc(F)cc3)nn3c2CCOC3)ccn1` [Example 94], the figures for the efficacy in % in data set [2], in data set [3] and in data set [4] were 93%, 90% and 95%, respectively.
On the same counts, the results for `CCC(=O)Nc1cc(-c2c(-c3ccc(F)cc3)nn3c2COCC3)ccn1` [Example 104] are 93%, 80% and 95%.
Turning to `CC(C)C(=O)Nc1cc(-c2c(-c3ccc(F)cc3)nn3c2CCCCC3)ccn1` [Example 97], the efficacy in % turned out to be 80% in data set [1], 100% in data set [2], 70% in data set [3] and 100% in data set [4].
In the case of `CC1CC1C(=O)Nc1cc(-c2c(-c3ccc(F)cc3)nn3c2CCOC3(C)C)ccn1` (stereo not shown) [Example 101], the efficacy in % in data set [1] is listed as 70%; in data set [2], 98%; in data set [3], 90%; in data set [4], 95%.
For `CC1(C)OCCc2c(-c3ccnc(NC(=O)C4CC4)c3)c(-c3ccc(F)cc3)nn21` [Example 84], the efficacy in % in data set [1] is reported as 88%; in data set [2], 98%; in data set [4] it was 94%.
On the same counts, the results for `O=C(Nc1cc(-c2c(-c3ccc(F)cc3)nn3c2CCOC3)ccn1)C1CC1` [Example 107] are 90%, 100% and 95%.
For the molecule `CC1CC1C(=O)Nc1cc(-c2c(-c3ccc(F)cc3)nn3c2CCOC3)ccn1` (stereo not shown) [Example 108], the efficacy in % in data set [1] was found to be 70%; in data set [2] it was 95%; in data set [3], 80%; in data set [4], 95%.
In the case of `CC(C)CNc1cc(-c2c(-c3ccc(F)cc3)nn3c2CCC3)ccn1` [Example 71], the efficacy in % in data set [5] and in data set [4] was 80% each time.
For orientation: chromatographic logP means a lipophilicity value derived from retention on a column. High values mean a more lipophilic compound, low ones a more hydrophilic compound. On to `COC(=O)c1c(-c2ccc(F)cc2)nn2c1C(C)CC2` (stereo not shown) [XXX-2, Methyl 2-(4-fluorophenyl)-4-methyl-5,6-dihydro-4H-pyrrolo[1,2-b]pyrazole-3-carboxylate], for which the chromatographic logP in data set [6] (log P(HCOOH), HCOOH) stood at 2.71.
On to `CCC(=O)Nc1cc(-c2c(-c3ccccc3)nn3c2COCC3)ccn1` [Example 100], for which the efficacy in % in data set [1] worked out at 70%; in data set [2], 95%; in data set [3], 80%; in data set [4], 100%.
Regarding `Fc1ccc(-c2cc3n(n2)CCCC3)cc1` [VII-1, 2-(4-Fluorophenyl)-4,5,6,7-tetrahydropyrazolo[1,5-a]pyridine], in data set [6] (log P(HCOOH), HCOOH), the chromatographic logP was 2.76.
On the same count and under the same terms, to `OCc1cc(-c2ccccc2)n[nH]1` [XIV-1, (3-Phenyl-1H-pyrazol-5-yl)methanol] belongs 1.14; to `Fc1ccc(C#Cc2ccnc(Cl)c2)cc1` [II-6, 2-Chloro-4-[(4-fluorophenyl)ethynyl]pyridine], 3.8.
Take `CN(C)C=Nc1cc(-c2c(-c3ccc(F)cc3)nn3c2CCCC3)ccn1` [Example 39]: the figures for the efficacy in % in data set [5], in data set [3] and in data set [4] were 80%, 80% and 95%, respectively.
Molecule `O=C(C#CCCOCc1ccccc1)c1ccc(F)cc1` [XX-1, 5-(Benzyloxy)-1-(4-fluorophenyl)pent-2-yn-1-one] came in with a chromatographic logP in data set [6] (log P(HCOOH), HCOOH) of 3.89.
With `O=C(Nc1cc(-c2c(-c3ccc(F)cc3)nn3c2CCOC3)ccn1)C1CCC1` [Example 109], the efficacy in % in data set [2] came to 93%; in data set [3], 90%; in data set [4], 95%.
As for `Brc1c(-c2ccccc2)nn2c1CSCC2` [VIII-18, 3-Bromo-2-phenyl-6,7-dihydro-4H-pyrazolo[5,1-c][1,4]thiazine], the chromatographic logP in data set [6] (log P(HCOOH), HCOOH) is 3.42.
As for `CC1(C)OCCc2c(I)c(-c3ccc(F)cc3)nn21` [VIII-16, 2-(4-Fluorophenyl)-3-iodo-7,7-dimethyl-4,5-dihydropyrazolo[1,5-c][1,3]oxazine], the chromatographic logP in data set [6] (log P(HCOOH), HCOOH) was found to be 4.28.
Still for that read-out and setting: to `CC1CCn2nc(-c3ccc(F)cc3)c(C(=O)O)c21` (stereo not shown) [XXXI-2, 2-(4-Fluorophenyl)-4-methyl-5,6-dihydro-4H-pyrrolo[1,2-b]pyrazole-3-carboxylic acid] belongs 1.84; to `c1ccc(-c2cc3n(n2)CCSC3)cc1` [VIIb-1, 2-Phenyl-6,7-dihydro-4H-pyrazolo[5,1-c][1,4]thiazine], 2.46; to `OCc1cc(-c2ccc(F)cc2)nn1CCCl` [XIII-1, [1-(2-Chloroethyl)-3-(4-fluorophenyl)-1H-pyrazol-5-yl]methanol], 1.84.
Turning to `CC(C)Nc1cc(-c2c(-c3ccc(Cl)cc3)nn3c2CCC3)ccn1` [Example 48], the efficacy in % in data set [5] was found to be 70%.
For the molecule `Fc1ccc(-c2cc3n(n2)CCOC3)cc1` [VIIa-1, 2-(4-Fluorophenyl)-6,7-dihydro-4H-pyrazolo[5,1-c][1,4]oxazine], the chromatographic logP in data set [6] (log P(HCOOH), HCOOH) is 2.01.
For the molecule `O=C(Cc1ccccc1)Nc1cc(-c2c(-c3ccc(F)cc3)nn3c2CCCCC3)ccn1` [Example 98], the efficacy in % in data set [2] amounted to 90%; in data set [3], 90%; in data set [4], 95%.
`O=C1CCCN1N=C(c1ccccc1)c1ccccc1` [XXVI-2, 1-[(Diphenylmethylene)amino]pyrrolidin-2-one] showed a chromatographic logP in data set [6] (log P(HCOOH), HCOOH) of 2.23.
In data set [6] (log P(HCOOH), HCOOH), `FC(F)(F)c1cccc(-c2nn3c(c2I)CCC3)c1` [VIII-3, 2-[3-(Trifluoromethyl)phenyl]-3-iodo-5,6-dihydro-4H-pyrrolo[1,2-b]pyrazole] gave a chromatographic logP of 4.11.
In data set [6] (pH 7, log P(pH7), pH7), `FC(F)(F)c1cccc(C#Cc2ccncc2)c1` [II-2, 4-{[3-(Trifluoromethyl)phenyl]ethynyl}pyridine] gave a chromatographic logP of 3.5.
The molecule `FC(F)(F)c1ccc(-c2nn3c(c2-c2ccncc2)CCC3)cc1` [Example 17] yielded an efficacy in % in data set [5] of 80%.
As for `c1ccc(-c2cc3n(n2)CCC3)cc1` [VII-2, 2-(Phenyl)-5,6-dihydro-4H-pyrrolo[1,2-b]pyrazole], the chromatographic logP in data set [6] (log P(HCOOH), HCOOH) was 2.19.
`CC1(C)OCCc2c(-c3ccnc(NC(=O)C4CCC4)c3)c(-c3ccc(F)cc3)nn21` [Example 102]: the efficacy in % in data set [1] turned out to be 90%; in data set [2], 100%; in data set [3] it was 95%; in data set [4], 95%.
Consider `c1csc(-c2cc3n(n2)CCCC3)c1` [VII-11, 2-(2-Thienyl)-4,5,6,7-tetrahydropyrazolo[1,5-a]pyridine], for which the chromatographic logP in data set [6] (log P(HCOOH), HCOOH) worked out at 2.42.
Molecule `CC1CCN(N=C(c2ccccc2)c2ccccc2)C1=O` (stereo not shown) [XXV-3, 1-[(Diphenylmethylene)amino]-3-methylpyrrolidin-2-one] returned a chromatographic logP in data set [6] (log P(HCOOH), HCOOH) of 2.62.
Same read-out and setting: to `Clc1ccc(C#Cc2ccncc2)cc1` [II-5, 4-{[4-Chlorophenyl]ethynyl}pyridine] belongs 2.43; to `CC1CCc2c(I)c(-c3ccc(F)cc3)nn21` (stereo not shown) [VIII-19, 2-(4-Fluorophenyl)-3-iodo-6-methyl-5,6-dihydro-4H-pyrrolo[1,2-b]pyrazole], 3.82; to `Fc1cccc(-c2nn3c(c2I)CCC3)c1` [VIII-11, 2-[3-Fluorophenyl]-3-iodo-5,6-dihydro-4H-pyrrolo[1,2-b]pyrazole], 3.32.
Consider `Fc1ccc(C#Cc2ccncc2)cc1` [II-4, 4-{[4-Fluorophenyl]ethynyl}pyridine], for which the chromatographic logP in data set [6] (pH 7, log P(pH7), pH7) came out at 2.81.
